In PubChem BioAssay AID1963858 (Molecular Pharmacology Branch, DTP, NCI, 2024):

System: HOP-62 multicell spheroids with HUVEC/MSC, viability
Assay: Anticancer human tumor HOP-62 cell line growth inhibition [KRAS2];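 further: viability read after a week of compound exposure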;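 on viability, T/C: 100% = DMSO vehicle-treated spheroids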
Settings: for IC50: curve of first compound; for viability, T/C: stronger effect = lower value
Procedure, shortened: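 KRAS-mutant tumor cells were grown as spheroids with HUVEC endothelial cells and human MSCs as stroma. Targeted agents were tested alone and with KRAS pathway inhibitors. Doses started at or near clinical Cmax, or 10 microM, descending half-log.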

[1] = second compound 0.1 µM, first compound 0.000316 µM
[2] = second compound 0.1 µM, first compound 0.001 µM
[3] = second compound 0.1 µM, first compound 0.00316 µM
[4] = second compound 0.1 µM, first compound 0.01 µM
[5] = second compound 0.1 µM, first compound 0.0316 µM
[6] = second compound 0.316 µM, first compound 0.000316 µM
[7] = second compound 0.316 µM, first compound 0.001 µM
[8] = second compound 0.316 µM, first compound 0.00316 µM
[9] = second compound 0.316 µM, first compound 0.01 µM
[10] = second compound 0.316 µM, first compound 0.0316 µM
[11] = second compound 1 µM, first compound 0.000316 µM
[12] = second compound 1 µM, first compound 0.001 µM
[13] = second compound 1 µM, first compound 0.00316 µM
[14] = second compound 1 µM, first compound 0.01 µM
[15] = second compound 1 µM, first compound 0.0316 µM
[16] = second compound 3.16 µM, first compound 0.000316 µM
[17] = second compound 3.16 µM, first compound 0.001 µM
[18] = second compound 3.16 µM, first compound 0.00316 µM
[19] = second compound 3.16 µM, first compound 0.01 µM
[20] = second compound 3.16 µM, first compound 0.0316 µM
[21] = second compound 10 µM, first compound 0.000316 µM
[22] = second compound 10 µM, first compound 0.001 µM
[23] = second compound 10 µM, first compound 0.00316 µM
[24] = second compound 10 µM, first compound 0.01 µM
[25] = second compound 10 µM, first compound 0.0316 µM
[26] = second compound 0.1 µM, first compound 0.1 µM
[27] = second compound 0.316 µM, first compound 0.1 µM
[28] = second compound 1 µM, first compound 0.1 µM
[29] = second compound 3.16 µM, first compound 0.1 µM
[30] = second compound 10 µM, first compound 0.1 µM

CC(=O)Nc1cccc(-n2c(=O)n(C3CC3)c(=O)c3c(Nc4ccc(I)cc4F)n(C)c(=O)c(C)c32)c1 + CNCc1ccccc1-c1csc(C(C)Nc2nc(C)nc3cc(OC)c(OC)cc23)c1
IC50 (second compound 0.1 µM): 4.3 nM
IC50 (second compound 0.316 µM): 2.84 nM
IC50 (second compound 1 µM): 2.32 nM
IC50 (second compound 3.16 µM): < 0.1 nM
IC50 (second compound 10 µM): < 0.1 nM
viability, T/C (second compound 0.1 µM, first compound 0.0001 µM): 104%
viability, T/C [1]: 97.2%
viability, T/C [2]: 81.6%
viability, T/C [3]: 60.1%
viability, T/C [4]: 28%
viability, T/C [5]: 27.4%
viability, T/C (second compound 0.316 µM, first compound 0.0001 µM): 106%
viability, T/C [6]: 97.4%
viability, T/C [7]: 77%
viability, T/C [8]: 48%
viability, T/C [9]: 30.1%
viability, T/C [10]: 29.9%
viability, T/C (second compound 1 µM, first compound 0.0001 µM): 91.2%
viability, T/C [11]: 92.8%
viability, T/C [12]: 74.1%
viability, T/C [13]: 41.4%
viability, T/C [14]: 26.8%
viability, T/C [15]: 25.7%
viability, T/C (second compound 3.16 µM, first compound 0.0001 µM): 7.87%
viability, T/C [16]: 0.24%
viability, T/C [17]: 3.22%
viability, T/C [18]: 0.35%
viability, T/C [19]: 0.07%
viability, T/C [20]: 0.24%
viability, T/C (second compound 10 µM, first compound 0.0001 µM): 0.13%
viability, T/C [21]: 0.15%
viability, T/C [22]: 2.8%
viability, T/C [23]: 0.12%
viability, T/C [24]: 2.27%
viability, T/C [25]: 0.31%

CN(C)C/C=C/C(=O)Nc1cc2c(Nc3ccc(F)c(Cl)c3)ncnc2cc1O[C@H]1CCOC1 + CNCc1ccccc1-c1csc(C(C)Nc2nc(C)nc3cc(OC)c(OC)cc23)c1
IC50 (second compound 0.1 µM): > 100 nM
IC50 (second compound 0.316 µM): > 100 nM
IC50 (second compound 1 µM): > 100 nM
IC50 (second compound 3.16 µM): 0.515 nM
IC50 (second compound 10 µM): < 0.316 nM
viability, T/C [1]: 110%
viability, T/C [2]: 106%
viability, T/C [3]: 111%
viability, T/C [4]: 115%
viability, T/C [5]: 111%
viability, T/C [26]: 96.5%
viability, T/C [6]: 124%
viability, T/C [7]: 115%
viability, T/C [8]: 110%
viability, T/C [9]: 109%
viability, T/C [10]: 113%
viability, T/C [27]: 108%
viability, T/C [11]: 101%
viability, T/C [12]: 105%
viability, T/C [13]: 101%
viability, T/C [14]: 99.8%
viability, T/C [15]: 85.8%
viability, T/C [28]: 101%
viability, T/C [16]: 73.8%
viability, T/C [17]: 16.4%
viability, T/C [18]: 19.2%
viability, T/C [19]: 6.17%
viability, T/C [20]: 31.4%
viability, T/C [29]: 14%
viability, T/C [21]: 0.18%
viability, T/C [22]: 0.14%
viability, T/C [23]: 0.15%
viability, T/C [24]: 0.15%
viability, T/C [25]: 0.16%
viability, T/C [30]: 1.46%

COC(=O)c1ccc2c(C(=Nc3ccc(N(C)C(=O)CN4CCN(C)CC4)cc3)c3ccccc3)c(O)[nH]c2c1 + CNCc1ccccc1-c1csc(C(C)Nc2nc(C)nc3cc(OC)c(OC)cc23)c1
IC50 (second compound 0.1 µM): 246 nM
IC50 (second compound 0.316 µM): 49.3 nM
IC50 (second compound 1 µM): < 31.6 nM
IC50 (second compound 3.16 µM): < 31.6 nM
IC50 (second compound 10 µM): < 31.6 nM
viability, T/C [5]: 68.1%
viability, T/C [26]: 64.7%
viability, T/C (second compound 0.1 µM, first compound 0.316 µM): 40.1%
viability, T/C (second compound 0.1 µM, first compound 1 µM): 34.6%
viability, T/C (second compound 0.1 µM, first compound 3.16 µM): 29.5%
viability, T/C (second compound 0.1 µM, first compound 10 µM): 5.99%
viability, T/C [10]: 48.3%
viability, T/C [27]: 54.6%
viability, T/C (second compound 0.316 µM, first compound 0.316 µM): 35.6%
viability, T/C (second compound 0.316 µM, first compound 1 µM): 31.4%
viability, T/C (second compound 0.316 µM, first compound 3.16 µM): 16.1%
viability, T/C (second compound 0.316 µM, first compound 10 µM): 3.78%
viability, T/C [15]: 43%
viability, T/C [28]: 32.2%
viability, T/C (second compound 1 µM, first compound 0.316 µM): 38.6%
viability, T/C (second compound 1 µM, first compound 1 µM): 29.8%
viability, T/C (second compound 1 µM, first compound 3.16 µM): 0.17%
viability, T/C (second compound 1 µM, first compound 10 µM): 0.9%
viability, T/C [20]: 12.6%
viability, T/C [29]: 0.12%
viability, T/C (second compound 3.16 µM, first compound 0.316 µM): 0.09%
viability, T/C (second compound 3.16 µM, first compound 1 µM): 0.09%
viability, T/C (second compound 3.16 µM, first compound 3.16 µM): 0.07%
viability, T/C (second compound 3.16 µM, first compound 10 µM): 0.1%
viability, T/C [25]: 0.12%
viability, T/C [30]: 0.16%
viability, T/C (second compound 10 µM, first compound 0.316 µM): 45.8%
viability, T/C (second compound 10 µM, first compound 1 µM): 0.09%
viability, T/C (second compound 10 µM, first compound 3.16 µM): 0.08%
viability, T/C (second compound 10 µM, first compound 10 µM): 0.35%
